Data published in patent publication US20140243334A1, “SUBSTITUTED HYDOXAMIC ACIDS AND USES THEREOF” (Millennium Pharmaceuticals, Inc., priority 2010, published 2014).

Biological target: T1, purified human HDAC6 (Homo sapiens, UniProt Q9UBN7)
T1 construct: purchased BPS Bioscience 5006
T1 sequence (Q9UBN7 1-1215): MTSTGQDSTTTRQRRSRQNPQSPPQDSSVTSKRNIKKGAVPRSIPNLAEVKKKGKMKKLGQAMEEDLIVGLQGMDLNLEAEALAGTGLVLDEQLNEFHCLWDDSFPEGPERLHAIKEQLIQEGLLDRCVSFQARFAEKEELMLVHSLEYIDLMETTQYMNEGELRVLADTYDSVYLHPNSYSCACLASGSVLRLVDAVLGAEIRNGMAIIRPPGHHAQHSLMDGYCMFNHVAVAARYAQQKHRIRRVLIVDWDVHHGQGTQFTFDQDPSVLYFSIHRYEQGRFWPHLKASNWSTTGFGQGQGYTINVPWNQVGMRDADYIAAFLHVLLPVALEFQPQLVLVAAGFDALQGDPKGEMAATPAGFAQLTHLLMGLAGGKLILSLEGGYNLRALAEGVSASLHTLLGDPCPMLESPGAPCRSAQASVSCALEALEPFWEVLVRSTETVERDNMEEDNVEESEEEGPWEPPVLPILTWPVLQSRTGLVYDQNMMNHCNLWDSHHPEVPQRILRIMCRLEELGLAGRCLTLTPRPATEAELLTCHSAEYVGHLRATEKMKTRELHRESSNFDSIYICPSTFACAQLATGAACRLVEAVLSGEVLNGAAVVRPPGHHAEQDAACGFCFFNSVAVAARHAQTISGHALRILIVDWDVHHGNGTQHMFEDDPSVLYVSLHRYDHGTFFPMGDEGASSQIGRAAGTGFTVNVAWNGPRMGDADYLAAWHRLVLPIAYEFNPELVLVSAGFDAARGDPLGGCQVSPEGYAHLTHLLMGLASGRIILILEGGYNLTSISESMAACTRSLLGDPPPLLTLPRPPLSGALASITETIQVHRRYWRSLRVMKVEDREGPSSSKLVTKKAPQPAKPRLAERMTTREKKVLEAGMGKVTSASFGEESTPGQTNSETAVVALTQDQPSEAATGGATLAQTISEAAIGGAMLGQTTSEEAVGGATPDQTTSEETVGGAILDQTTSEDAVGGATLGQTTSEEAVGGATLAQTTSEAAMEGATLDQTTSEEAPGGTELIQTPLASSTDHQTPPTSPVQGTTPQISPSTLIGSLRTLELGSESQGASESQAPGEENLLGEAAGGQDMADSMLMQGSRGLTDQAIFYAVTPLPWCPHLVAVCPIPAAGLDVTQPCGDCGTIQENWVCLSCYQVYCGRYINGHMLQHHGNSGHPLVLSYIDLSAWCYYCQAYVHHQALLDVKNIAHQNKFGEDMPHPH
Test: HDAC6 Enzyme Assay
Type: biochemical
Conditions: HDAC6 inhibition at a compound concentration of 0.412 μM; read-out: Percent Inhibition at 0.412 μM
Experimental: To measure the inhibition of HDAC6 activity, purified human HDAC6 (BPS Bioscience; Cat. No. 5006) is incubated with substrate Ac-Arg-Gly-Lys(Ac)-AMC peptide (Bachem Biosciences; Cat. No. I-1925) for 1 hour at 30° C. in the presence of test compounds or vehicle DMSO control. The reaction is stopped with the HDAC inhibitor trichostatin A (Sigma; Cat. No. T8552) and the amount of Arg-Gly-Lys-AMC generated is quantitated by digestion with trypsin (Sigma; Cat. No. T1426) and subsequent measurement of the amount of AMC released using a fluorescent plate reader (Pherastar; BMG Technologies) set at Ex 340 nm and Em 460 nm. Concentration response curves are generated by calculating the fluorescence increase in test compound-treated samples relative to DMSO-treated controls, and enzyme inhibition (IC50) values are determined from those curves.

SMILES | inhibition at 0.412 µM
O=C(NO)C1CCc2ccc(-c3ccc(C(F)(F)F)cc3)cc2C1 (stereo not drawn) [Compound I-112, N-hydroxy-7-[4-(trifluoromethyl)phenyl]-1,2,3,4-tetrahydronaphthalene-2-carboxamide] | 58%
COc1ccc(-c2ccc3c(c2)CC(C(=O)NO)CC3)cc1F (stereo not drawn) [Compound I-101, 7-(3-fluoro-4-methoxyphenyl)-N-hydroxy-1,2,3,4-tetrahydronaphthalene-2-carboxamide] | 82%
Cc1nnc(-c2cccc(-c3ccc4c(c3)CC(C(=O)NO)CC4)c2)o1 (stereo not drawn) [Compound I-88, N-hydroxy-7-[3-(5-methyl-1,3,4-oxadiazol-2-yl)phenyl]-1,2,3,4-tetrahydronaphthalene-2-carboxamide] | 79%
COc1ccc(Nc2ccc3c(c2)CCC(C(=O)NO)C3)cc1 (stereo not drawn) [Compound I-80, N-hydroxy-6-[(4-methoxyphenyl)amino]-1,2,3,4-tetrahydronaphthalene-2-carboxamide] | 43%
CCCc1ccc(-c2ccc3c(c2)CC(C(=O)NO)CC3)cc1 (stereo not drawn) [Compound I-94, N-hydroxy-7-(4-propylphenyl)-1,2,3,4-tetrahydronaphthalene-2-carboxamide] | 62%
COc1ccc2cc(-c3ccc4c(c3)CC(C(=O)NO)CC4)ccc2c1 (stereo not drawn) [Compound I-114, N-hydroxy-6′-methoxy-5,6,7,8-tetrahydro-2,2′-binaphthalene-7-carboxamide] | 76%
O=C(NO)C1CCc2ccc(NS(=O)(=O)c3ccccc3)cc2C1 (stereo not drawn) [Compound I-28, N-hydroxy-7-[(phenylsulfonyl)amino]-1,2,3,4-tetrahydronaphthalene-2-carboxamide] | 65%
CC(C)Cc1ccc(-c2ccc3c(c2)CC(C(=O)NO)CC3)cc1 (stereo not drawn) [Compound I-122, N-hydroxy-7-(4-isobutylphenyl)-1,2,3,4-tetrahydronaphthalene-2-carboxamide] | 34%
CNC(=O)Nc1cccc(Oc2ccc3c(c2)CC(C(=O)NO)CC3)c1 (stereo not drawn) [Compound I-57, N-hydroxy-7-(3-{[(methylamino)carbonyl]amino}phenoxy)-1,2,3,4-tetrahydronaphthalene-2-carboxamide] | 73%
O=C(NO)C1CCc2ccc(-c3cccc(NC(=O)C4CC4)c3)cc2C1 (stereo not drawn) [Compound I-64, 7-{3-[(cyclopropylcarbonyl)amino]phenyl}-N-hydroxy-1,2,3,4-tetrahydronaphthalene-2-carboxamide] | 90%
CC(=O)Nc1cccc(Oc2ccc3c(c2)CC(C(=O)NO)CC3)c1 (stereo not drawn) [Compound I-21, 7-[3-(acetylamino)phenoxy]-N-hydroxy-1,2,3,4-tetrahydronaphthalene-2-carboxamide] | 80%
CC(C)(C)C(=O)Nc1cccc(-c2ccc3c(c2)CC(C(=O)NO)CC3)c1 (stereo not drawn) [Compound I-63, 7-{3-[(2,2-dimethylpropanoyl)amino]phenyl}-N-hydroxy-1,2,3,4-tetrahydronaphthalene-2-carboxamide] | 90%
CN(C)CCOc1cccc(-c2ccc3c(c2)CC(C(=O)NO)CC3)c1 (stereo not drawn) [Compound I-58, 7-{3-[2-(dimethylamino)ethoxy]phenyl}-N-hydroxy-1,2,3,4-tetrahydronaphthalene-2-carboxamide] | 87%
O=C1CCc2c(Oc3cc4c(cc3F)CCC(C(=O)NO)C4)ccnc2N1 (stereo not drawn) [Compound I-31, 6-fluoro-N-hydroxy-7-[(7-oxo-5,6,7,8-tetrahydro-1,8-naphthyridin-4-yl)oxy]-1,2,3,4-tetrahydronaphthalene-2-carboxamide] | 79%
Cn1cc(-c2cc(C(=O)Nc3ccc4c(c3)CC(C(=O)NO)CC4)cc(C(F)(F)F)c2)cn1 (stereo not drawn) [Compound I-35, N-hydroxy-7-{[3-(1-methyl-1H-pyrazol-4-yl)-5-(trifluoromethyl)benzoyl]amino}-1,2,3,4-tetrahydronaphthalene-2-carboxamide] | 87%
O=C(NO)C1CCc2ccc(-c3cc4ccccc4s3)cc2C1 (stereo not drawn) [Compound I-61, 7-(1-benzothien-2-yl)-N-hydroxy-1,2,3,4-tetrahydronaphthalene-2-carboxamide] | 73%
CC(C)(C)NC(=O)c1ccc2c(c1)CC(C(=O)NO)CC2 (stereo not drawn) [Compound I-45, N^7-(tert-butyl)-N^2-hydroxy-1,2,3,4-tetrahydronaphthalene-2,7-dicarboxamide] | 79%
O=C(NO)C1CCc2ccc(-c3ccc4c(c3)CCO4)cc2C1 (stereo not drawn) [Compound I-90, 7-(2,3-dihydro-1-benzofuran-5-yl)-N-hydroxy-1,2,3,4-tetrahydronaphthalene-2-carboxamide] | 85%
Cc1cc(F)ccc1-c1ccc2c(c1)CC(C(=O)NO)CC2 (stereo not drawn) [Compound I-102, 7-(4-fluoro-2-methylphenyl)-N-hydroxy-1,2,3,4-tetrahydronaphthalene-2-carboxamide] | 76%
COc1cccc(Nc2ccc3c(c2)CCC(C(=O)NO)C3)c1 (stereo not drawn) [Compound I-79, N-hydroxy-6-[(3-methoxyphenyl)amino]-1,2,3,4-tetrahydronaphthalene-2-carboxamide] | 43%
N#Cc1ccc2c(c1)CC(C(=O)NO)CC2 (stereo not drawn) [Compound I-42, 7-cyano-N-hydroxy-1,2,3,4-tetrahydronaphthalene-2-carboxamide] | 62%
O=C1CCc2c(Oc3ccc4c(c3)CCC(C(=O)NO)C4)ccnc2N1 (stereo not drawn) [Compound I-14, N-hydroxy-6-[(7-oxo-5,6,7,8-tetrahydro-1,8-naphthyridin-4-yl)oxy]-1,2,3,4-tetrahydronaphthalene-2-carboxamide] | 67%
CN(C)S(=O)(=O)c1cccc(-c2ccc3c(c2)CC(C(=O)NO)CC3)c1 (stereo not drawn) [Compound I-93, 7-{3-[(dimethylamino)sulfonyl]phenyl}-N-hydroxy-1,2,3,4-tetrahydronaphthalene-2-carboxamide] | 79%
O=C(NO)C1CCc2ccc(-c3ccc(C(=O)N4CCCC4)c(F)c3)cc2C1 (stereo not drawn) [Compound I-118, 7-[3-fluoro-4-(pyrrolidin-1-ylcarbonyl)phenyl]-N-hydroxy-1,2,3,4-tetrahydronaphthalene-2-carboxamide] | 77%
O=C(NO)C1CCc2cc(-c3ccc(Cl)cc3)ccc2C1 (stereo not drawn) [Compound I-65, 6-(4-chlorophenyl)-N-hydroxy-1,2,3,4-tetrahydronaphthalene-2-carboxamide] | 68%
O=C(NO)C1CCc2cc(Nc3ccc(Cl)cc3)ccc2C1 (stereo not drawn) [Compound I-78, 6-[(4-chlorophenyl)amino]-N-hydroxy-1,2,3,4-tetrahydronaphthalene-2-carboxamide] | 48%
O=C(NO)C1CCc2ccc(Oc3cccc(OCc4ccccc4)c3)cc2C1 (stereo not drawn) [Compound I-41, 7-[3-(benzyloxy)phenoxy]-N-hydroxy-1,2,3,4-tetrahydronaphthalene-2-carboxamide] | 64%
CC(C)(C)OC(=O)Nc1cccc(Oc2ccc3c(c2)CC(C(=O)NO)CC3)c1 (stereo not drawn) [Compound I-53, tert-Butyl [3-({7-[(hydroxyamino)carbonyl]-5,6,7,8-tetrahydronaphthalen-2-yl}oxy)phenyl]carbamate] | 83%
O=C(NO)C1CCc2cc(Oc3ccnc(NC(=O)C4CC4)c3)ccc2C1 (stereo not drawn) [Compound I-13, 6-({2-[(cyclopropylcarbonyl)amino]pyridin-4-yl}oxy)-N-hydroxy-1,2,3,4-tetrahydronaphthalene-2-carboxamide] | 74%
O=C(NO)C1CCc2ccc(-c3cccc(-c4ccccc4)c3)cc2C1 (stereo not drawn) [Compound I-110, 7-biphenyl-3-yl-N-hydroxy-1,2,3,4-tetrahydronaphthalene-2-carboxamide] | 83%
